Data taken from patent publication US11510931B2, “Compositions and methods for treating ophthalmic conditions” (MEDICON PHARMACEUTICALS, INC., priority 2016, dated 2022).

Experiments:
[1] = Biodistribution of PS in porcine eyes (ex vivo); assay type: in vitro ADME, pig; conditions: porcine eye ex vivo, 2% PS nanoparticle solution
Source text: Biodistribution of PS in porcine eyes (ex vivo): Explanted pig eyes were exposed to PS nanoparticle solution (PS concentration was 2%) and treated as were the human eyes.

[2] = system: VEGF-A; assay: Secreted VEGF in culture medium of human ovarian cancer cells (ELISA); assay type: cell-based; conditions: PS 1.0×IC50, 24 h
Protocol: First, the effect of PS on VEGF production was evaluated by cultured human cancer ovarian cells, known to secrete VEGF to recruit vascular endothelial cells for angiogenesis. Therefore, VEGF is one of the most significant and direct targets in an anti-angiogenesis strategy. The experiments discovered that VEGF levels are reduced in ovarian cancer cells by PS. Secreted VEGF was assayed in the culture medium by ELISA.

[3] = system: NF-κB; assay: NF-κB activation in the ILG of rabbits with DED; assay type: in vivo, rabbit; conditions: 1 week of treatment, vs vehicle
Protocol: Human conjunctival cells were treated with various concentrations of PS. Five hours later, TNF-α was added to the culture medium to a final concentration of 10 ng/ml and the status of NF-κB activation was determined by EMSA 1 h later. […] Similarly, after 1 week of treatment, PS suppressed NF-κB activation in the ILG of rabbits with DED compared to those treated with vehicle.

[4] = system: concanavalin A-induced dry eye in rabbits; assay: Concanavalin A (Con A)-induced dry eye disease (DED) model in rabbits: TBUT, Schirmer test, tear osmolarity, tear lactoferrin; assay type: in vivo, rabbit
Protocol: To assess the efficacy of PS on DED an improved concanavalin A model was used. In the concanavalin A model, dry eye is induced by injecting the lacrimal glands of a mammal with concanavalin A, a selective T cell mitogen that induces a lymphocytic infiltrate in these glands. The concanavalin A model is generally described in (Barabino S. Animal models of dry eye. Arch Soc Esp Oftalmol. 2005; 80(12):693-4). Concanavalin A was injected to the lacrimal glands under ultrasound guidance, thus eliminating injections to the vicinity of the gland (as opposed to the gland itself). The head and the tail of the major lacrimal gland of the rabbit were injected separately. The dose of concanavalin A was optimized for DED signs.
In the testing described below, four markers of DED are monitored: the tear break up time (TBUT), the Schirmer test, tear osmolarity, and tear lactoferrin levels. All assays were performed at the same clock time (±1 hr) to avoid assay variability on account of circadian variations.
In an efficacy experiment using the concanavalin A model, one group of rabbits was treated with compound 5, also known as phosphosulindac and abbreviated as PS, 1.5% eye drops and one group with vehicle. […] It is thus clear that PS applied topically suppresses DED.
Con A was injected under ultrasound guidance into all the lacrimal glands and the success of the injection was verified by a post-injection ultrasound image (see FIG. 1 and FIG. 2). […] This variation explains why the blind injections recommended in the original method are often unsuccessful. This was confirmed by mixing the Con A solution with methylene blue and tracking its course after injection. In about ⅓ of the cases, Con A ended up outside the gland.
Four parameters of efficacy were evaluated instead of the usual one or two. They include (a) the tear break up time (TBUT), determined using 0.2% fluorescein over the eye and recording the time taken to develop black dots, lines or obvious disruption of the fluorescein film; (b) tear osmolarity, measured using TearLab Osmolarity Test and following the manufacturer's instructions (TearLab Corp., San Diego, Calif.); (3) Schirmer tear test (STT), determined using Schirmer strips (EagleVision, Denville, N.J.) inserted between the cornea and the palpebral conjunctiva at the mid-point of the lower lid and measuring the length of moistened strip at 5 min; and (4) tear lactoferrin levels measured by ELISA kit (MyBiosource, San Diego, Calif.) following the instructions of the manufacturer. All four have been used in clinical practice and correlate with the clinical activity of the disease. The STT is the least reliable and, as result, it is clinically used less than half as frequently as TBUT.
The injections of Con A to the lacrimal glands were repeated weekly as needed. When longer than a 1-week periods of study are needed, repeat injections prolong dry eye for at least 3 weeks, making the originally acute model chronic.
PS Suppresses Con A—Induced Dry Eye in Rabbits. The effect of PS on dry eye was determined in New Zealand White (NZW) rabbits, 2-3 kg (Charles River Labs, Waltham, Mass.). These rabbits were housed singly in rooms with strict temperature (70±5° F.) and humidity (45±5%) control and acclimated for at least 2 weeks prior to induction of dry eye by injection of Con A as above. NZW rabbits with Con A-induced dry eye (three sets of injections) were treated with PS formulated as nanoparticles and administered topically as eye drops 3×/day for 21 days, starting on the day of Con A injection. […] Similar results were obtained on days 5 and 14 (data not shown).
Using this model, we compared the effect of PS to that of cyclosporine and lifitegrast. Rabbits were treated for 6 days with PS as above or cyclosporine 0.05% or lifitegrast 5% eye drops 3×/day. In addition to determining TUBT, osmolarity and STT, we measured the levels of IL-8 and IL-1β in the ILGs of the rabbits harvested at euthanasia. […]

[5] = system: IL-6; assay: IL-6 in culture medium of human conjunctival cells (ELISA); assay type: cell-based
Protocol: Cells were treated with PS 1×IC50 and 2 h later TNF-α was added to the medium to a final concentration of 10 ng/ml. Culture media were harvested 24 h later and the levels of TGF-β, IL-6 and IL-8 were determined by ELISA. Of note, the levels of IL-1β were below the limit of detection.

[6] = exposure/incubation 1/15 min/min
[7] = exposure/incubation 1/60 min/min
[8] = exposure/incubation 10/15 min/min
[9] = exposure/incubation 10/60 min/min
[10] = Baseline, PS 1.5% eye drops, Mean ± SEM
[11] = Con A DED rabbits, 6 days, eye drops 3×/day, PS nanoparticles, cyclosporine 0.05%, lifitegrast 5%, mean ± SEM
[12] = Day 13, PS 1.5% eye drops, Mean ± SEM
[13] = after 1 week of treatment, FIG. 5

## CCOP(=O)(OCC)OCCCCOC(=O)CC1=C(C)/C(=C/c2ccc([S+](C)[O-])cc2)c2ccc(F)cc21 (stereo not drawn) [PS, phosphosulindac]
[1]; [6]
  PS in Cornea: 51.5 µM
  PS in Lens: 9.5 µM
  PS in Sclera: 86.6 µM
[1]; [7]
  PS in Cornea: 99.8 µM
  PS in Lens: 4.8 µM
  PS in Sclera: 123.9 µM
[1]; [8]
  PS in Cornea: 97.1 µM
  PS in Lens: 1.9 µM
  PS in Sclera: 89.9 µM
[1]; [9]
  PS in Cornea: 170.6 µM
  PS in Lens: 2.1 µM
  PS in Sclera: 47.9 µM
[2]; A2780
  VEGF-A, % inhibition: 64%
[2]; A2780ADR
  VEGF-A, % inhibition: 77%
[2]; A2780cis
  VEGF-A, % inhibition: 65%
[2]; OVCAR-3
  VEGF-A, % inhibition: 100%
[2]; SKOV-3
  VEGF-A, % inhibition: 96%
[3]
  NF-κB activation in the ILG: suppressed
[4]; [10]
  Schirmer test: 14.6 ± 0.9 mm
  TBUT: 52.3 ± 4.6 s
  Tear lactoferrin: 3.09 ± 0.4 ng/mg protein
[4]; [11]
  Osmolarity: 294 ± 4.6 mOsm/L
  STT: 12.3 ± 0.6 mm
  TBUT: 43.6 ± 4.0 s
[4]; Day 11, PS 1.5% eye drops, Mean ± SEM
  Schirmer test: 9.5 ± 1.0 mm
[4]; [12]
  TBUT: 56.0 ± 4.0 s
  Tear lactoferrin: 3.19 ± 0.2 ng/mg protein
[4]; PS nanoparticles eye drops 3×/day for 21 days, FIG. 4
  TBUT, tear osmolarity and tear lactoferrin levels: restored to normal
[4]; PS nanoparticles eye drops 3×/day for 21 days, difference from vehicle significant only for trend, FIG. 4
  STT value: improved
[4]; [13]
  STT: no significant effect
  TBUT and osmolarity: normalized
[5]; TNF-α-stimulated, PS 1×IC50, media at 24 h
  IL-6 reduction: 95%
[5]; unstimulated levels, PS 1×IC50
  IL-6 reduction: 84%
